Patent US20250188110A1, “SPECIFIC SMALL MOLECULE INHIBITORS THAT BLOCK KMT9 METHYLTRANSFERASE ACTIVITY AND FUNCTION” (ALBERT-LUDWIGS-UNIVERSITÄT FREIBURG, priority 2021, published 2025)
pIC50, pKd: −log10 of the molar value.

Tests used:
[1] = target: T1, KMT9 (Homo sapiens, UniProt Q9Y5N5); assay: KMT9 thermal shift assay (SyproOrange); type: binding; conditions: ΔTm; 500 µM compound, 2 μM KMT9, 5X SO; read-out: Thermal shift
T1 sequence (Q9Y5N5 1-214): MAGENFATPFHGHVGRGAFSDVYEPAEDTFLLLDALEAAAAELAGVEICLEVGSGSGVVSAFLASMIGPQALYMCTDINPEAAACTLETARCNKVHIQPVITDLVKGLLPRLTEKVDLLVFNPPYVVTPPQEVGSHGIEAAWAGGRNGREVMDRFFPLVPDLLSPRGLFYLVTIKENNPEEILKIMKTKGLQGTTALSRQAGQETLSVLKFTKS
T1 sequence (Q9UI30 1-120 isoform Q9UI30-2 partner): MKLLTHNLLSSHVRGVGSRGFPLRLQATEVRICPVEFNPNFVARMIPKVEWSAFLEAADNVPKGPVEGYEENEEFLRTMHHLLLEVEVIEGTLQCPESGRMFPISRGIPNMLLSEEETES
Summary of the method: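 ΔTm versus DMSO-only control is reported in bins (>20 K, 15–20 K, 10–15 K, ≤10 K), using Tm from Boltzmann sigmoidal fits of SyproOrange melt curves. KMT9 with compound in pH 8.5 BTP buffer containing MgCl2 and DTT was preincubated at 25° C, then ramped 1° C per 15 s up to 95° C.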

[2] = target: T1, KMT9; assay: Microscale thermophoresis (MST) KMT9 binding; conditions: microscale thermophoresis, His-tag labelled KMT9 (20 nM); read-out: MST
Summary of the method: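 Kd from microscale thermophoresis: compound series against 20 nM His-KMT9 labelled via RED-Tris-NTA, buffer 25 mM HEPES (pH 7.5)/100 mM NaCl/1 mM DTT/0.05% Tween, 40% MST power, 100% LED. Reported as classes: A ≤10 nM, B >10–100 nM, C >100–1000 nM, D >1000 nM.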

[3] = target: T1, KMT9; assay: KMT9 methyltransferase inhibition assay, 3H-SAM scintillation (entries 1-154); type: biochemical; conditions: entries 1-154: 3H-SAM assay, 25 nM KMT9, 5 μM ETF1
Summary of the method: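 Tritium transfer from SAM (0.3 μM 3H-SAM, 0.7 μM unlabelled, final) to 5 μM ETF1 fragment by 25 nM KMT9 was measured after 2 h at 30° C, pH 8.5. Precipitated peptide was collected on filters and scintillation counted; IC50 came from a four-parameter fit of inhibition normalised to controls.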

Structure (SMILES)	ΔTm at 500 µM [1]	pKd [2]	pIC50 [3]
C=Cc1cn([C@@H]2C[C@H](CNCCCNCCc3ccccc3)[C@@H](O)[C@H]2O)c2ncnc(N)c12 [464 (338), (1R,2S,3R,5R)-3-(4-amino-5-vinyl-7H-pyrrolo[2,3-d]pyrimidin-7-yl)-5-(((3-(phenethylamino)propyl)amino)methyl) cyclopentane-1,2-diol]	10 to 15 °C	7.00 to 8.00	5.00 to 6.00
CCc1cn([C@@H]2C[C@H](CNCCCNCCc3ccccc3)[C@@H](O)[C@H]2O)c2ncnc(N)c12 [465 (339), (1R,2S,3R,5R)-3-{4-amino-5-ethylpyrrolo[2,3-d]pyrimidin-7-yl}-5-[{{3-[(2-phenylethyl)amino]propyl}amino)methyl]cyclopentane-1,2-diol]	10 to 15 °C	6.00 to 7.00	5.00 to 6.00
Nc1ncnc2c1c(-c1ccccc1)cn2[C@@H]1C[C@H](CNCCCNCCc2ccccc2)[C@@H](O)[C@H]1O [466 (340), (1R,2S,3R,5R)-3-{4-amino-5-phenylpyrrolo[2,3-d]pyrimidin-7-yl}-5-[({3-[(2-phenylethyl)amino]propyl}amino)methyl]cyclopentane-1,2-diol]	10 to 15 °C	6.00 to 7.00	6.00 to 7.00
Cc1cn([C@@H]2C[C@H](CNCCCNCCc3ccccc3)[C@@H](O)[C@H]2O)c2ncnc(N)c12 [467 (341), (1R,2S,3R,5R)-3-(4-Amino-5-methyl-7H-pyrrolo[2,3-d]pyrimidin-7-yl)-5-(((3-(phenethylamino)propyl)amino)methyl) cyclopentane-1,2-diol]	10 to 15 °C	6.00 to 7.00	5.00 to 6.00
Nc1ncnc2c1c(C1CC1)cn2[C@@H]1C[C@H](CNCCCNCCc2ccccc2)[C@@H](O)[C@H]1O [468 (342), (1R,2S,3R,5R)-3-(4-Amino-5-cyclopropyl-7H-pyrrolo[2,3-d]pyrimidin-7-yl)-5-(((3-(phenethylamino)propyl)amino)methyl) cyclopentane-1,2-diol]	15 to 20 °C	6.00 to 7.00	5.00 to 6.00
CCC(C)c1cn([C@@H]2C[C@H](CNCCCNCCc3ccccc3)[C@@H](O)[C@H]2O)c2ncnc(N)c12 (stereo partly drawn) [469 (343), (1R,2S,3R,5R)-3-(4-Amino-5-(sec-butyl)-7H-pyrrolo[2,3-d]pyrimidin-7-yl)-5-(((3-(phenethylamino)propyl)amino)methyl) cyclopentane-1,2-diol]	10 to 15 °C	6.00 to 7.00	5.00 to 6.00
Nc1ncnc2c1c(-c1ccncc1)cn2[C@@H]1C[C@H](CNCCCNCCc2ccccc2)[C@@H](O)[C@H]1O [470 (344), (1R,2S,3R,5R)-3-(4-Amino-5-(pyridin-4-yl)-7H-pyrrolo[2,3-d]pyrimidin-7-yl)-5-(((3-(phenethylamino)propyl)amino)methyl) cyclopentane-1,2-diol]	10 to 15 °C	6.00 to 7.00	6.00 to 7.00
Nc1ncnc2c1c(-c1ccncn1)cn2[C@@H]1C[C@H](CNCCCNCCc2ccccc2)[C@@H](O)[C@H]1O [471 (345), (1R,2S,3R,5R)-3-(4-Amino-5-(pyrimidin-4-yl)-7H-pyrrolo[2,3-d]pyrimidin-7-yl)-5-(((3-(phenethylamino)propyl)amino)methyl) cyclopentane-1,2-diol]	15 to 20 °C	6.00 to 7.00	6.00 to 7.00
Nc1ncnc2c1c(-c1ccn[nH]1)cn2[C@@H]1C[C@H](CNCCCNCCc2ccccc2)[C@@H](O)[C@H]1O [472 (346), (1R,2S,3R,5R)-3-(4-Amino-5-(1H-pyrazol-5-yl)-7H-pyrrolo[2,3-d]pyrimidin-7-yl)-5-(((3-(phenethylamino)propyl)amino)methyl) cyclopentane-1,2-diol]	15 to 20 °C	7.00 to 8.00	6.00 to 7.00
Nc1ncnc2c1c(-c1ncc[nH]1)cn2[C@@H]1C[C@H](CNCCCNCCc2ccccc2)[C@@H](O)[C@H]1O [473 (347), (1R,2S,3R,5R)-3-(4-Amino-5-(1H-imidazol-2-yl)-7H-pyrrolo[2,3-d]pyrimidin-7-yl)-5-(((3-(phenethylamino)propyl)amino)methyl) cyclopentane-1,2-diol]	15 to 20 °C	7.00 to 8.00	6.00 to 7.00
Nc1ncnc2c1c(-c1nccs1)cn2[C@@H]1C[C@H](CNCCCNCCc2ccccc2)[C@@H](O)[C@H]1O [474 (348), (1R,2S,3R,5R)-3-(4-Amino-5-(thiazol-2-yl)-7H-pyrrolo[2,3-d]pyrimidin-7-yl)-5-(((3-(phenethylamino)propyl)amino)methyl) cyclopentane-1,2-diol]	15 to 20 °C	7.00 to 8.00	5.00 to 6.00
Nc1ncnc2c1c(-c1ncn[nH]1)cn2[C@@H]1C[C@H](CNCCCNCCc2ccccc2)[C@@H](O)[C@H]1O [475 (349), (1R,2S,3R,5R)-3-(4-amino-5-(1H-1,2,4-triazol-5-yl)-7H-pyrrolo[2,3-d]pyrimidin-7-yl)-5-(((3-(phenethylamino)propyl)amino)methyl) cyclopentane-1,2-diol]	15 to 20 °C	7.00 to 8.00	6.00 to 7.00
Cn1ccc(-c2cn([C@@H]3C[C@H](CNCCCNCCc4ccccc4)[C@@H](O)[C@H]3O)c3ncnc(N)c23)n1 [476 (350), (1R,2S,3R,5R)-3-(4-Amino-5-(1-methyl-1H-pyrazol-3-yl)-7H-pyrrolo[2,3-d]pyrimidin-7-yl)-5-(((3-(phenethylamino)propyl)amino)methyl) cyclopentane-1,2-diol]	15 to 20 °C	6.00 to 7.00	6.00 to 7.00
Nc1ncnc2c1c(-c1ccn(Cc3ccccc3)n1)cn2[C@@H]1C[C@H](CNCCCNCCc2ccccc2)[C@@H](O)[C@H]1O [477 (351), (1R,2S,3R,5R)-3-(4-Amino-5-(1-benzyl-1H-pyrazol-3-yl)-7H-pyrrolo[2,3-d]pyrimidin-7-yl)-5-(((3-(phenethylamino)propyl)amino)methyl) cyclopentane-1,2-diol]	15 to 20 °C	7.00 to 8.00	5.00 to 6.00
Cn1cc(-c2cn([C@@H]3C[C@H](CNCCCNCCc4ccccc4)[C@@H](O)[C@H]3O)c3ncnc(N)c23)cn1 [478 (352), (1R,2S,3R,5R)-3-(4-Amino-5-(1-methyl-1H-pyrazol-4-yl)-7H-pyrrolo[2,3-d]pyrimidin-7-yl)-5-(((3-(phenethylamino)propyl)amino)methyl) cyclopentane-1,2-diol]	15 to 20 °C	7.00 to 8.00	5.00 to 6.00
Nc1ncnc2c1c(C1CCOCC1)cn2[C@@H]1C[C@H](CNCCCNCCc2ccccc2)[C@@H](O)[C@H]1O [479 (353), (1R,2S,3R,5R)-3-(4-Amino-5-(tetrahydro-2H-pyran-4-yl)-7H-pyrrolo[2,3-d]pyrimidin-7-yl)-5-(((3-(phenethylamino)propyl)amino)methyl) cyclopentane-1,2-diol]	10 to 15 °C	6.00 to 7.00	5.00 to 6.00
CN1CCC(c2cn([C@@H]3C[C@H](CNCCCNCCc4ccccc4)[C@@H](O)[C@H]3O)c3ncnc(N)c23)CC1 [480 (354), (1R,2S,3R,5R)-3-(4-Amino-5-(1-methylpiperidin-4-yl)-7H-pyrrolo[2,3-d]pyrimidin-7-yl)-5-(((3-(phenethylamino)propyl)amino)methyl) cyclopentane-1,2-diol]	≤ 10 °C	< 6.00	5.00 to 6.00
